Experiments:
human neutrophils [1] = test: MPO activity of TNFα-activated neutrophils incubated overnight with single or combined phytonutrients; type: cell-based; details: sole addition
Description: 100 μl of 37° C. O-dianisidine hydrochloride solution (1 mg O-dianisidine, 10 ml phosphate buffer pH 6.0+0.0015% H2O2) were added to 100 μl supernatant in a 96-well plate immediately before the optical density was followed by the change of absorbance at 450 nm at 2 minute intervals on a Thermomax Microplate Reader (Molecular Devices, Melno Park, Calif.).
Tocopherol and phytosterol were added to 5×10^5 human neutrophils 20 min before addition of 100 ng/ml TNFα and maintained overnight at 37° C. in a humidified atmosphere containing 5% CO2. MPO activity was measured in the supernatant of the cultured neutrophils.
Zeta carotene, phytoene, tocopherol, phytosterol, or combinations thereof, were added to 5×10^5 human neutrophils 20 min before addition of 100 ng/ml TNFα and maintained overnight at 37° C. in humidified atmosphere containing 5% CO2. MPO activity was measured as escribed above.
The inventors examined the effect of multiple phytonutrients on MPO activity in stimulated neutrophils. The sole addition of tocopherol or phytosterol had no effect on the release and activity of MPO from neutrophils activated with TNFα (FIGS. 13A-13B).
The inventors also examined the effect of adding zeta carotene with either phytoene, a tocopherol, or a phytosterol, on MPO activity. […]

[2] = Plasma carotenoids after Lumenato capsules (bioavailability); type: in vivo; details: delivered within Lumenato capsules, plasma at 1, 2, 3 and 4 weeks post administration
From the text: The inventors have examined the bioavailability of carotenoids delivered within Lumenato capsules. The following carotenoids were quantified in the plasma at 1 week, 2 weeks, 3 weeks, and 4 weeks post administration. Phytoene, phytofluene and zeta-carotene which are the main carotenoids in Lumenato (the golden tomato extract) were absorbed well (FIG. 15).

human neutrophils [3] = test: MMP-9 secretion from stimulated human neutrophils (ELISA); type: cell-based; details: agonist alone
Description: (§1) Blood was drawn from healthy volunteers. Neutrophils, at 95% purity were obtained by Ficoll-Hypaque centrifugation, dextran sedimentation, and hypotonic lysis of erythrocytes within 1 hour after blood was drawn. Cells were counted and their viability was determined by trypan blue exclusion. Human MMP-9 concentrations in cell culture supernatants were quantified by ELISA kits (R&D systems Minneapolis, Minn., USA). […] Neutrophils were activated by 100 ng/ml TNFα or 100 ng/ml IL8 that are released from the skin cells during exposure to UV and activated. In addition, neutrophils were activated with […] for comparison.

human neutrophils [4] = test: MPO secretion from stimulated human neutrophils; type: cell-based; details: agonist alone
Description: as §1, with “100 μl of 37° C. O-dianisidine hydrochloride solution (1 mg O-dianisidine, 10 ml phosphate buffer pH 6.0+0.0015% H2O2) were added to 100 μl supernatant” for “Human MMP-9 concentrations”, “a 96-well plate immediately before the optical density was followed” for “cell culture supernatants were quantified”, “the change of absorbance at 450 nm at 2 minute intervals on a Thermomax Microplate Reader (Molecular Devices, Melno Park, Calif.).” for “ELISA kits (R&D systems Minneapolis, Minn., USA).”

[5] = tested on: KERTr human keratinocytes; test: Viability of KERTr keratinocytes under H2O2 oxidative stress (XTT); type: cell-based; details: H2O2 alone
Description: (§2) The inventors used hydrogen peroxide, H2O2, to induce oxidative stress in KERTr human keratinocytes, and analyzed the effects on cell number (cell death) and the secretion of MMP1. Cells viability was determined using the XTT cell proliferation kit, and MMP1 levels were measured by ELISA.

NHDF cells = test: Collagen 1a1 secretion by NHDF cells under H2O2 oxidative stress (ELISA); type: cell-based, human; details: 50 μM H2O2
Description: Cells were incubated with Lumenato for 24 h and then hydrogen peroxide (H2O2) was added, and cells were incubated for additional 24 h to induce oxidative stress. The incubation medium was collected and the levels of collagen 1 a 1 protein secretion to the medium were analyzed using a specific ELISA detection kit.

[6] = tested on: KERTr human keratinocytes; test: MMP1 secretion by KERTr keratinocytes under H2O2 oxidative stress (ELISA); type: cell-based; details: H2O2 alone
Description: as §2

[7] = 2 hr of activation, TNFα or IL8 100 ng/ml

## tocopherol
Human neutrophils [1]
  effect on release and activity of MPO: no effect

## CC(C)=CCC/C(C)=C/CC/C(C)=C/C=C/C(C)=C/C=C/C=C(\C)CC/C=C(\C)CC/C=C(\C)CCC=C(C)C [phytofluene]
[2]
  absorption (plasma concentration): absorbed well

## formyl-Methionine-Leucine-Phenylalanine [fMLP]
Human neutrophils [3]; 30 min of activation
  release of MMP-9: 10.41 ± 0.4 ng/mL
Human neutrophils [3]; 4 hr of activation
  release of MMP-9: 13.45 ± 0.3 ng/mL
Human neutrophils [4]; 30 min of activation
  release of MPO: 0.54 ± 0.004 ng/mL

## CC(C)=CCC/C(C)=C/CC/C(C)=C/CC/C(C)=C/C=C/C=C(\C)CC/C=C(\C)CC/C=C(\C)CCC=C(C)C [phytoene]
[2]
  absorption (plasma concentration): absorbed well

## phytosterol
Human neutrophils [1]
  effect on release and activity of MPO: no effect

## CC(C)=CCC/C(C)=C/CC\C(C)=C/C=C/C(C)=C/C=C/C=C(C)/C=C/C=C(/C)CC/C=C(\C)CCC=C(C)C [zeta carotene]
[2]; listed as Zeta carotene
  absorption (plasma concentration): absorbed extremely well
[2]; listed as zeta-carotene
  absorption (plasma concentration): absorbed well

## OO [H2O2, hydrogen peroxide]
[5]
  cell number (cell death): dose dependent cell death
NHDF cells
  reduction in collagen 1a1 secretion: about 10 fold
[6]
  secretion of MMP1: increased secretion of MMP1

## TNFα
Human neutrophils [3]; [7]
  release of MMP-9: 16.52 ± 0.5 ng/mL
Human neutrophils [4]; 4 h of activation
  release of MPO: 0.28 ± 0.001 ng/mL

## IL8: interleukin 8, agonist used to stimulate neutrophils
Human neutrophils [3]; [7]
  release of MMP-9: 9.12 ± 0.2 ng/mL
Human neutrophils [3]; 4 hr of activation
  release of MMP-9: 17.86 ± 0.4 ng/mL
Human neutrophils [4]; 4 h of activation
  release of MPO: 0.4 ± 0.08 ng/mL

From patent US20220387344A1, “COMPOSITIONS AND METHODS FOR INHIBITING COLLAGEN LOSS” (LYCORED LTD., priority 2019, published 2022)
